Tests used:
c-Kit = c-Kit (Homo sapiens, UniProt P10721); experiment: c-Kit kinase assay as described in WO 2005/030140 A2; assay type: biochemical; conditions: assays described in WO 2005/030140 A2
Text: (§1) Other utilities of this compound are further described in WO 2005/030140 A2.

c-Met = c-Met (Homo sapiens, UniProt P08581); experiment: c-Met kinase assay as described in WO 2005/030140 A2; assay type: biochemical; conditions: assays described in WO 2005/030140 A2
Text: as §1

Sequence of c-Kit (P10721 26-976): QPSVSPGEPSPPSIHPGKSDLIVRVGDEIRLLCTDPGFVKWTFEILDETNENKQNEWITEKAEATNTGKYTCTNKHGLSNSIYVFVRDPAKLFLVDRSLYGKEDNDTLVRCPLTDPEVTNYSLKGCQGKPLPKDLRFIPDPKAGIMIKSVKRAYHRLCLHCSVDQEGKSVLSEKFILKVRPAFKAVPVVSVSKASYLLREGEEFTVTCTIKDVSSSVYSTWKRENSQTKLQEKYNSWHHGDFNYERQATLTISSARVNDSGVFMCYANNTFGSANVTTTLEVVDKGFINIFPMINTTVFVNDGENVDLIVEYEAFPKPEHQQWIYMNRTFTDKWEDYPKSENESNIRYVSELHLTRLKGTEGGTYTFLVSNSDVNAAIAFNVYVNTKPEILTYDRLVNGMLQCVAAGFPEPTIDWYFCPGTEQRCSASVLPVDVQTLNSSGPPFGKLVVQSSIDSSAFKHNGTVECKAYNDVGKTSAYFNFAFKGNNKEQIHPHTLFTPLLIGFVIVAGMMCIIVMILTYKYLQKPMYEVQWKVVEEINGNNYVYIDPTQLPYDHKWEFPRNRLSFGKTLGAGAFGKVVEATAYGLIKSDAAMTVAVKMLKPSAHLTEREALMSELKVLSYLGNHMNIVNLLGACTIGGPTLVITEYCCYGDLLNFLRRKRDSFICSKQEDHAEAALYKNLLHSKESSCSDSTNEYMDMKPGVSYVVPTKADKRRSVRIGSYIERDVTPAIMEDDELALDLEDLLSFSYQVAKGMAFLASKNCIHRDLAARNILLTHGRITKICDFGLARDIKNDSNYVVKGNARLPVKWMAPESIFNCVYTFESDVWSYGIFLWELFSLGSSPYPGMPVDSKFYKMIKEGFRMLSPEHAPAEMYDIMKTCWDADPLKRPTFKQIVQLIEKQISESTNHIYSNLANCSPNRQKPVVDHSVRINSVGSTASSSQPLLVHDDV
Sequence of c-Met (P08581 25-1390): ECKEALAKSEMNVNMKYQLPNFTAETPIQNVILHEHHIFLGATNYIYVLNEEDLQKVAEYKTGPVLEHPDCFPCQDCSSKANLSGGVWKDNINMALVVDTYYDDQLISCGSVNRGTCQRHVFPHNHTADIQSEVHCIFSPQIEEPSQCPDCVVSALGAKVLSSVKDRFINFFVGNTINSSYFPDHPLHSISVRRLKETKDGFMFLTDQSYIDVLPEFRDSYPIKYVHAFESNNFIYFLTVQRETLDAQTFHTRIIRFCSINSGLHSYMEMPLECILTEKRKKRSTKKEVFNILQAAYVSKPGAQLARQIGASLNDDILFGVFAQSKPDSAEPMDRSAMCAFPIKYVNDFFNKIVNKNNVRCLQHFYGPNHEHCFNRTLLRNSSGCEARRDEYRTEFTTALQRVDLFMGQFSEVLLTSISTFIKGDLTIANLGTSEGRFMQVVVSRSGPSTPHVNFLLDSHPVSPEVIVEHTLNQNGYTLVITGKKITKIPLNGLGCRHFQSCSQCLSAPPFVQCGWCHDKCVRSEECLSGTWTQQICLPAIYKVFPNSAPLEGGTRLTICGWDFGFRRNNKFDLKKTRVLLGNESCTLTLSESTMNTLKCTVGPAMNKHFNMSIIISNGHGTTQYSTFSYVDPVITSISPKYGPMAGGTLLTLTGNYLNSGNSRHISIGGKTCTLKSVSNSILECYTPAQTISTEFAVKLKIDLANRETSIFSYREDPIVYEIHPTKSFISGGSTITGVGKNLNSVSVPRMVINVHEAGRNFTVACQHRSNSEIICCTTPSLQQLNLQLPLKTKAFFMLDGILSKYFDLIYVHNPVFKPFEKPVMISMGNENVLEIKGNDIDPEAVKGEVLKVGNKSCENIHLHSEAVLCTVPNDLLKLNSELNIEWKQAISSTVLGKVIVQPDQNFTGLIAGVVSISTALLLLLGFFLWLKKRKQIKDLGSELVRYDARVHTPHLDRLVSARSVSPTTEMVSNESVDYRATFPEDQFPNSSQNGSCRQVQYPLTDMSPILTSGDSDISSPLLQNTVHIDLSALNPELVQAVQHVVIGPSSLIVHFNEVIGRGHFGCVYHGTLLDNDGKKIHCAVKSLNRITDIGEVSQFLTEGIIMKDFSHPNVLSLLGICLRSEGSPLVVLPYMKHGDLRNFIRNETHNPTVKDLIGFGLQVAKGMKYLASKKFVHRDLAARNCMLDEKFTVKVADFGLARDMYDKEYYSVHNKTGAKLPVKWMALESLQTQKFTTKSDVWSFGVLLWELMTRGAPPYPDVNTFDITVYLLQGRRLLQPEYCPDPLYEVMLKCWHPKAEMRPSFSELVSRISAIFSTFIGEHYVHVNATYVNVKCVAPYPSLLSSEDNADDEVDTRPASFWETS

IC50 (c-Kit): < 50 nM
IC50 (c-Met): < 50 nM
Structure (SMILES): COc1cc2c(Oc3ccc(NC(=O)C(=O)NCCc4ccccc4)cc3F)ccnc2cc1OCCCN1CCOCC1 [title compound, N-{3-Fluoro-4-[6-methoxy-7-(3-morpholin-4-yl-propoxy)-quinolin-4-yloxy]-phenyl}-N′-phenethyl-oxalamide]

From patent publication US20130030172A1, “Methods of Preparing Quinoline Derivatives” (Exelixis, Inc., priority 2008, published 2013)
